The subject of data set [1] is Fusarium oxysporum f. sp. cyclaminis. In words: Antifungal activity against […] of Fusarium oxysporum f. sp. cyclaminis infested cyclamen seedlings assessed as delay in development of disease symptoms at 50 ug a.i/ml applied as spray relative to untreated control. The format is functional, organism-based.
For data set [2] the test system is unchanged. As to the kind of experiment: Antifungal activity against Fusarium oxysporum f. sp. cyclaminis infested cyclamen seedlings assessed as increase in foliar dry mass at 10 to 50 ug a.i/ml applied as spray. The data set is classed as functional, organism-based.
The test system is the same in data set [3]. In words: Antifungal activity against Fusarium oxysporum f. sp. cyclaminis infested cyclamen seedlings assessed as delay in development of disease symptoms at 50 ug a.i/ml applied as spray. The data set is classed as functional.
Data set [4] has as its system Cyclamen persicum. In words: Phytotoxicity in Cyclamen persicum seedlings assessed as decrease in effect on flower quality at 10 to 50 ug a.i/ml applied as spray. As to conditions: in vivo, other. The format is organism-based.
In data set [5] the test system is Cyclamen persicum. As to the kind of experiment: Phytotoxicity in Cyclamen persicum seedlings assessed as decrease in foliar dry mass at 10 to 50 ug a.i/ml applied as spray. The data set is classed as organism-based. More on the design: scale not given: the % may be the effect or the level left. The following applies: in vivo, other.
For data set [6], the system named is Cyclamen persicum. In words: Phytotoxicity in Cyclamen persicum seedlings assessed as decrease in foliar dry mass at 50 ug a.i/ml applied as spray. As to conditions: in vivo, other. The format is organism-based. Set-up: scale not given: the % may be the effect or the level left.
In data set [7] the test system is Cyclamen persicum. As to the kind of experiment: Phytotoxicity in Cyclamen persicum seedlings assessed as visible damage on leaves at 10 to 50 ug a.i/ml applied as spray. The data set is classed as organism-based. As to conditions: in vivo, topical_or_ocular.
Data set [8] deals with Fusarium oxysporum f. sp. cyclaminis. As to the kind of experiment: Antifungal activity against 1 CFU of Fusarium oxysporum f. sp. cyclaminis infested cyclamen seedlings assessed as delay in development of decrease severity at 50 ug a.i/ml applied as spray. The data set is classed as functional, organism-based.
Data set [9] has the same test system. As to the kind of experiment: Antifungal activity against 1 CFU of Fusarium oxysporum f. sp. cyclaminis infested cyclamen seedlings assessed as increase in foliar dry mass at 50 ug a.i/ml applied as spray relative to untreated control. The format is functional, organism-based.
The test system of data set [10] is Cyclamen persicum. As to the kind of experiment: Phytotoxicity in Cyclamen persicum seedlings assessed as decrease in effect on flower number at 10 to 50 ug a.i/ml applied as spray. The format is organism-based. As to conditions: in vivo, other.

The structures appear in SMILES notation. Activity calls are given as the source filed them. No cut-off for these calls is given here.

Consider one compound from ChEMBL document CHEMBL3046906, “Effects of acibenzolar-S-methyl on the suppression of Fusarium wilt of cyclamen” (Crop Prot, 2006).

Consider `CSC(=O)c1cccc2nnsc12` [ACIBENZOLAR-S-METHYL], for which the outcome in [1], in data set [2], in data set [8] and in [9] was Active. The Time in data set [3] was 20 days. For the same compound, the Activity entry in the data set with Cyclamen persicum [4] is “Non-toxic”; in the data set with Cyclamen persicum [5], 36%; in the data set with Cyclamen persicum [6] it was 65%; in the data set on Cyclamen persicum [7], “Non-toxic”; with Cyclamen persicum [10], “Non-toxic”.
